Among the data in PubChem BioAssay AID330 (DTP/NCI, 2004) are T/C values, retold here.

Values joined by “and” are separate entries in the source; they are usually repeats but may differ in a detail not shown here. Equal values may be shown once. Toxic doses and inconclusive results are not listed.

For the assay, the system named is P388 leukemia ip, CD2F1 mice, survival T/C. As to the kind of experiment: NCI In Vivo Anticancer Drug Screen. Data for tumor model P388 Leukemia (intraperitoneal) in CD2F1 (CDF1) mice. The conditions noted are these: endpoint: median survival time, higher = longer survival. The gist of the method: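 Mice carrying the transplanted tumor received test compound or vehicle. Survival was recorded in each group, and the value is the treated-group measurement divided by that of the vehicle-treated control group.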

The mark [1] stands for this setting: dose: 60.0 mg/kg/injection, schedule: Q01DX005 (ip), vehicle: Klucel + Tween-80.
[2] abbreviates: dose: 120.0 mg/kg/injection, schedule: Q01DX005 (ip), vehicle: Klucel + Tween-80.
[3] abbreviates: dose: 240.0 mg/kg/injection, schedule: Q01DX005 (ip), vehicle: Klucel + Tween-80.
Where [4] appears, read: dose: 50.0 mg/kg/injection, schedule: Q01DX009 (ip), vehicle: saline with Tween-80.
[5] abbreviates: dose: 50.0 mg/kg/injection, schedule: Q01DX009 (ip), vehicle: saline.
The mark [6] stands for this setting: dose: 100.0 mg/kg/injection, schedule: Q01DX009 (ip), vehicle: saline.
[7] abbreviates: dose: 200.0 mg/kg/injection, schedule: Q01DX009 (ip), vehicle: saline.
[8] abbreviates: dose: 50.0 mg/kg/injection, schedule: Q01DX005 (ip), vehicle: saline.
Where [9] appears, read: dose: 100.0 mg/kg/injection, schedule: Q01DX005 (ip), vehicle: saline.
Where [10] appears, read: dose: 200.0 mg/kg/injection, schedule: Q01DX005 (ip), vehicle: saline.
The mark [11] stands for this setting: dose: 50.0 mg/kg/injection, schedule: Q01DX005 (ip), vehicle: saline with Tween-80.
Setting [12] is: dose: 100.0 mg/kg/injection, schedule: Q01DX005 (ip), vehicle: saline with Tween-80.

Consider `CCOc1nc(N)nc(C)c1N=Nc1cccc(Cl)c1`, for which the T/C reads like this: under setting [1], 101 % of control; under setting [2], 107 % of control; under setting [3], 100 % of control.

As to `Cc1c[nH]c2nc(C)n(-c3ccc(F)cc3)c(=N)c12`, the T/C runs as follows: (dose: 6.25 mg/kg/injection, schedule: Q01DX005 (ip), vehicle: Klucel (hydroxypropylcellulose) (HPC)) 100 % of control; (dose: 12.5 mg/kg/injection, schedule: Q01DX005 (ip), vehicle: Klucel (hydroxypropylcellulose) (HPC)) 102 % of control; (dose: 25.0 mg/kg/injection, schedule: Q01DX005 (ip), vehicle: Klucel (hydroxypropylcellulose) (HPC)) 100 % of control.

Turning to `CC(C)=CCC/C(C)=C/CC1=C(O)c2ccccc2C(=O)C1=O`, the T/C (dose: 1.56 mg/kg/injection, schedule: Q01DX009 (ip), vehicle: saline) is 98 % of control; the T/C (dose: 3.12 mg/kg/injection, schedule: Q01DX009 (ip), vehicle: saline) was 100 % of control; the T/C (dose: 6.25 mg/kg/injection, schedule: Q01DX009 (ip), vehicle: saline) is 100 % of control; the T/C (dose: 12.5 mg/kg/injection, schedule: Q01DX009 (ip), vehicle: saline) is 104 % of control and 94 % of control.

For `CCNc1nc(Cl)nc(NC(C)C)n1`, the T/C (dose: 50.0 mg/kg/injection, schedule: Q04DX003 (ip), vehicle: saline with Tween-80) was 91 % of control; the T/C (dose: 100.0 mg/kg/injection, schedule: Q04DX003 (ip), vehicle: saline with Tween-80) is 87 % of control; the T/C (dose: 200.0 mg/kg/injection, schedule: Q04DX003 (ip), vehicle: saline with Tween-80) is 91 % of control.

Take `Cn1c(=O)c2nc3c(=O)n(C)c(=O)n(C)c3nc2n(C)c1=O`: the T/C reads like this: (dose: 6.25 mg/kg/injection, schedule: Q01DX009 (ip), vehicle: Klucel (hydroxypropylcellulose) (HPC)) 100 % of control and 102 % of control and 118 % of control; (dose: 12.5 mg/kg/injection, schedule: Q01DX009 (ip), vehicle: Klucel (hydroxypropylcellulose) (HPC)) 101 % of control and 103 % of control and 116 % of control; (dose: 25.0 mg/kg/injection, schedule: Q01DX009 (ip), vehicle: Klucel (hydroxypropylcellulose) (HPC)) 104 % of control and 120 % of control; (dose: 50.0 mg/kg/injection, schedule: Q01DX009 (ip), vehicle: Klucel (hydroxypropylcellulose) (HPC)) 111 % of control.

Take `CCN(CCO)CCc1cccc2ccccc12`: the T/C is 104 % of control (dose: 50.0 mg/kg/injection, schedule: Q01DX005 (ip), vehicle: Klucel (hydroxypropylcellulose) (HPC)) and 99 % of control (dose: 100.0 mg/kg/injection, schedule: Q01DX005 (ip), vehicle: Klucel (hydroxypropylcellulose) (HPC)).

In the case of `c1csc(NC(Nc2nccs2)C23CC4CC(CC(C4)C2)C3)n1`, the T/C under setting [4] is 96 % of control; the T/C (dose: 100.0 mg/kg/injection, schedule: Q01DX009 (ip), vehicle: saline with Tween-80) is 101 % of control; the T/C (dose: 200.0 mg/kg/injection, schedule: Q01DX009 (ip), vehicle: saline with Tween-80) was 100 % of control.

With `NC1[N-]C(C2CCCC[N-]2)CC2CCCCC21.NC1[N-]C(C2CCCC[N-]2)CC2CCCCC21.O=[N+]([O-])O.[Cu+]` (centres undefined), the T/C (dose: 6.25 mg/kg/injection, schedule: Q04DX009 (ip), vehicle: suspension in saline) is 98 % of control; the T/C (dose: 12.5 mg/kg/injection, schedule: Q04DX009 (ip), vehicle: suspension in saline) was 103 % of control; the T/C (dose: 25.0 mg/kg/injection, schedule: Q04DX009 (ip), vehicle: suspension in saline) was 113 % of control.

As to `CC(C)(C)N1C(=O)NCC1(C)C`, the T/C under setting [5] is 105 % of control, the T/C under setting [6] is 100 % of control and the T/C under setting [7] was 98 % of control.

For the compound `CN(C)CCNc1ccc(NCCN(C)C)c2c1C(=O)c1ccccc1C2=O`, the T/C by setting is: (dose: 2.5 mg/kg/injection, schedule: Q01DX009 (ip), vehicle: distilled water + Tween-80) 117 % of control; (dose: 5.0 mg/kg/injection, schedule: Q01DX009 (ip), vehicle: distilled water + Tween-80) 124 % of control; (dose: 20.0 mg/kg/injection, schedule: Q01DX009 (ip), vehicle: acid diluted with saline) 163 % of control; (dose: 20.0 mg/kg/injection, schedule: Q01DX009 (ip), vehicle: distilled water + Tween-80) 159 % of control; (dose: 40.0 mg/kg/injection, schedule: Q01DX009 (ip), vehicle: acid diluted with saline) 202 % of control; (dose: 40.0 mg/kg/injection, schedule: Q01DX009 (ip), vehicle: distilled water + Tween-80) 162 % of control.

`C=[CH][Sn]([CH]=C)([c]1ccccc1)[c]1ccccc1`: the T/C runs as follows: under setting [8], 107 % of control; under setting [9], 108 % of control; under setting [10], 104 % of control.

On to `NCC(=O)NC(CCCN=C(N)N)C(=O)O` (centres undefined), for which the T/C by setting is: under setting [8], 96 % of control; under setting [9], 99 % of control; under setting [10], 99 % of control.

Consider `C[Si](C)(C)Cn1ccc(=O)[nH]c1=O`, for which the T/C under setting [1] was 94 % of control, the T/C under setting [2] was 92 % of control and the T/C under setting [3] was 98 % of control.

`CCCOc1ccc2c(NCCCCNc3c4ccccc4nc4cc(OCCC)ccc34)c3ccccc3nc2c1`: the T/C was 98 % of control (dose: 0.62 mg/kg/injection, schedule: Q01DX009 (ip), vehicle: other); 109 % of control (dose: 1.25 mg/kg/injection, schedule: Q01DX009 (ip), vehicle: other); 98 % of control (dose: 2.5 mg/kg/injection, schedule: Q01DX009 (ip), vehicle: other); 107 % of control (dose: 5.0 mg/kg/injection, schedule: Q01DX009 (ip), vehicle: other); 107 % of control (dose: 10.0 mg/kg/injection, schedule: Q01DX009 (ip), vehicle: other).

For the compound `C[Si](C)(C)CN(Cc1ccccc1)C(=O)c1ccccc1[N+](=O)[O-]`, the T/C was 105 % of control under setting [11]; 98 % of control under setting [12]; 103 % of control (dose: 200.0 mg/kg/injection, schedule: Q01DX005 (ip), vehicle: saline with Tween-80).

`Cc1nc2ncnc(Cl)c2[nH]1`: the T/C was 99 % of control under setting [8], 105 % of control under setting [9] and 96 % of control under setting [10].

Consider `Cc1cc2c(c(=O)o1)C(C)CC(c1c(O)cc(C)oc1=O)O2` (centres undefined), for which the T/C is 114 % of control (dose: 60.0 mg/kg/injection, schedule: Q01DX005 (ip), vehicle: saline with Tween-80); 108 % of control (dose: 120.0 mg/kg/injection, schedule: Q01DX005 (ip), vehicle: saline with Tween-80); 103 % of control (dose: 240.0 mg/kg/injection, schedule: Q01DX005 (ip), vehicle: saline with Tween-80).

In the case of `O=C(O)c1c[nH]c2cc(O)ccc2c1=O`, the T/C was 98 % of control (dose: 12.5 mg/kg/injection, schedule: Q01DX009 (ip), vehicle: saline with Tween-80); 96 % of control (dose: 25.0 mg/kg/injection, schedule: Q01DX009 (ip), vehicle: saline with Tween-80); 103 % of control under setting [4]; 103 % of control under setting [5]; 101 % of control under setting [6]; 95 % of control under setting [7].

In the case of `C=C/C(C)=C\CC/C(C)=C/c1cc(C(=O)O)co1`, the T/C is, setting by setting: (dose: 4.0 mg/kg/injection, schedule: Q01DX009 (ip), vehicle: Klucel (hydroxypropylcellulose) (HPC)) 104 % of control; (dose: 8.0 mg/kg/injection, schedule: Q01DX009 (ip), vehicle: Klucel (hydroxypropylcellulose) (HPC)) 100 % of control; (dose: 16.0 mg/kg/injection, schedule: Q01DX009 (ip), vehicle: Klucel (hydroxypropylcellulose) (HPC)) 99 % of control; (dose: 32.0 mg/kg/injection, schedule: Q01DX009 (ip), vehicle: Klucel (hydroxypropylcellulose) (HPC)) 100 % of control.

On to `CC1=NN(C(=O)c2ccc(Cl)cc2)C(=O)C1N=Nc1ccc(S(=O)(=O)Nc2ccccn2)cc1` (centres undefined), for which the T/C was 102 % of control under setting [11] and 94 % of control under setting [12].

Consider `CCC1=C(C)c2cc3[n-]c(cc4nc(cc5[n-]c(cc1n2)c(C)c5CCC(=O)OC)C(CCC(=O)OC)=C4C)c(C)c3CC.[Ni+2]`, for which the T/C (dose: 18.75 mg/kg/injection, schedule: Q01DX009 (ip), vehicle: saline with Tween-80) is 87 % of control; the T/C (dose: 37.5 mg/kg/injection, schedule: Q01DX009 (ip), vehicle: saline with Tween-80) is 87 % of control; the T/C (dose: 75.0 mg/kg/injection, schedule: Q01DX009 (ip), vehicle: saline with Tween-80) was 94 % of control.

In the case of `NC(=S)c1ccc(C=Nc2ccc(Cl)cc2)cc1`, the T/C reads like this: (dose: 50.0 mg/kg/injection, schedule: Q01DX001 (ip), vehicle: other) 102 % of control; (dose: 100.0 mg/kg/injection, schedule: Q01DX001 (ip), vehicle: other) 98 % of control.
